In the test the target is Melanin-concentrating hormone receptor 1 (Homo sapiens, UniProt Q99705). Nature of the test: Binding affinity to MCH1 receptor.
Melanin-concentrating hormone receptor 1, sequence (Q99705 whole entry): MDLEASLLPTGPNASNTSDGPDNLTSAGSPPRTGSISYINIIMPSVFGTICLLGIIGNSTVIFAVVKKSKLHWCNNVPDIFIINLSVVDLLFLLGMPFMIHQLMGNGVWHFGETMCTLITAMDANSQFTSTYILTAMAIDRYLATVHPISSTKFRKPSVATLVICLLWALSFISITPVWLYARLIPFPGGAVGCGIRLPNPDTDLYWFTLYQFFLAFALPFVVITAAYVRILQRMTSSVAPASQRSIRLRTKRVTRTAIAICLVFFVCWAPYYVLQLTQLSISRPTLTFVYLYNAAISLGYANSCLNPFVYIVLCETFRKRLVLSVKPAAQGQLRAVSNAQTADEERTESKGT

Consider `Cc1ccc(CN2CCC(=Cc3ccc(C(=O)N[C@H](C)c4ccc(Br)cc4)cc3)CC2)c2ccccc12`, for which the Ki worked out at 1.41 µM.

`C[C@@H](NC(=O)c1ccc(CC2CCN(Cc3ccc4c(c3)OCO4)CC2)cc1)c1ccccc1`: affinity was put at a Ki of 3.47 µM.

With `COc1cccc([C@@H](C)NC(=O)c2ccc(CC3CCN(Cc4ccc5c(c4)OCO5)CC3)cc2)c1`, affinity was put at a Ki of 0.266 µM. Against the preceding compound, the Ki is about 13-fold lower.

Consider `C[C@@H](NC(=O)c1ccc(CC2CCN(Cc3ccc4c(c3)OCO4)CC2)cc1)c1ccc(Cl)cc1`, for which the Ki is 0.108 µM.

`CC[C@@H](NC(=O)c1ccc(CC2CCN(Cc3ccc4c(c3)OC(F)(F)O4)CC2)cc1)c1ccc(I)cc1` displayed a Ki of 0.795 µM.

Compound `CC[C@@H](NC(=O)c1ccc(CC2CCN(Cc3ccc4cncnc4c3)CC2)cc1)c1ccc(I)cc1` gave a Ki of 0.03 µM.

`CC[C@@H](NC(=O)c1ccc(CC2CCN(Cc3ccc4cccnc4c3)CC2)cc1)c1ccc(I)cc1` gave a Ki of 0.005 µM.

`C[C@@H](NC(=O)c1ccc(C=C2CCN(Cc3ccco3)CC2)cc1)c1ccc(Br)cc1` showed a Ki of 15.6 µM. This Ki lies about 3100-fold higher than the previous one.

With `O=C(N[C@@H]1CCc2ccccc21)c1ccc(CC2CCN(Cc3ccc4c(c3)OCO4)CC2)cc1`, the affinity corresponds to a Ki of 4.68 µM.

On to `COc1ccccc1[C@@H](C)NC(=O)c1ccc(CC2CCN(Cc3ccc4c(c3)OCO4)CC2)cc1`, for which the affinity, expressed as Ki, was 2.06 µM.

As for `C[C@@H](NC(=O)c1ccc(CC2CCN(Cc3ccc4c(c3)OCO4)CC2)cc1)c1ccc(I)cc1`, the Ki amounted to 0.051 µM. Compared with the last compound, the Ki is about 40-fold lower.

On to `Cc1ccc([C@@H](C)NC(=O)c2ccc(CC3CCN(Cc4ccc5c(c4)OCO5)CC3)cc2)cc1`, for which the Ki was 1.08 µM.

Compound `CC[C@@H](NC(=O)c1ccc(CC2CCN(Cc3ccc4ccccc4n3)CC2)cc1)c1ccc(I)cc1` had a Ki of 0.312 µM.

On to `C[C@@H](NC(=O)c1ccc(C=C2CCN(Cc3ccccc3)CC2)cc1)c1ccc(Br)cc1`, for which the Ki was found to be 2.58 µM.

`C[C@@H](NC(=O)c1ccc(C=C2CCN(CC3CCCCC3)CC2)cc1)c1ccc(Br)cc1` came in with a Ki of 11.8 µM.

Compound `CC(NC(=O)c1ccc(CC2CCN(Cc3ccc4c(c3)OCO4)CC2)cc1)c1ccccc1` (stereo not drawn) gave a Ki of 4.13 µM.

Consider `Cc1ccccc1CNC(=O)c1ccc(CC2CCN(Cc3ccc4c(c3)OCO4)CC2)cc1`, for which affinity was put at a Ki of 9.33 µM.

In turn, `CCC[C@@H](NC(=O)c1ccc(CC2CCN(Cc3ccc4c(c3)OCO4)CC2)cc1)c1ccc(I)cc1` returned a Ki of 0.191 µM.

Compound `CC[C@@H](NC(=O)c1ccc(CC2CCN(Cc3ccc4nccnc4c3)CC2)cc1)c1ccc(I)cc1` showed a Ki of 0.04 µM.

`C[C@@H](NC(=O)c1ccc(CN2CCN(Cc3ccc4c(c3)OCO4)CC2)cc1)c1ccc(Br)cc1` had a Ki of 1.95 µM.

Regarding `CC1CN(Cc2ccc3c(c2)OCO3)CCN1Cc1ccc(C(=O)N[C@@H](C)c2ccc(Br)cc2)cc1` (stereo partly drawn), the Ki is 4.56 µM. Against the preceding compound, the Ki is about 2.3-fold higher.

Compound `C[C@@H](NC(=O)c1ccc(CC2CCN(Cc3ccc4c(c3)OCO4)CC2)cc1)C1CCCCC1` returned a Ki of 3.57 µM.

In turn, `C[C@@H](NC(=O)c1ccc(C=C2CCN(Cc3ccc(-c4ccccc4)cc3)CC2)cc1)c1ccc(Br)cc1` displayed a Ki of 5.11 µM.

With `CC(c1ccc(C(=O)N[C@@H](C)c2ccc(Br)cc2)cc1)N1CCN(Cc2ccc3c(c2)OCO3)CC1` (stereo partly drawn), the Ki stood at 2.33 µM.

With `COc1ccc(CN2CCC(=Cc3ccc(C(=O)N[C@H](C)c4ccc(Br)cc4)cc3)CC2)cc1`, the affinity corresponds to a Ki of 0.149 µM.

The compound `O=C(Cc1ccc2c(c1)CCO2)c1ccc(CC2CCN(Cc3ccc4c(c3)OCO4)CC2)cc1` yielded a Ki of 0.133 µM.

Consider `CC[C@@H](NC(=O)c1ccc(CC2CCN(Cc3ccc4c(c3)OCO4)CC2)cc1)c1ccc(I)cc1`, for which the Ki worked out at 0.02 µM.

Consider `O=C(NCc1ccccc1)c1ccc(CC2CCN(Cc3ccc4c(c3)OCO4)CC2)cc1`, for which the affinity, expressed as Ki, was 5.64 µM.

For orientation: Ki means a dissociation constant, usually derived from enzyme kinetics or from competition with a known ligand. High values mean lower affinity, low ones higher affinity.

These data come from ChEMBL document CHEMBL1158402, “Homology modeling of MCH1 receptor and validation by docking/scoring and protein-aligned CoMFA” (Eur J Med Chem, 2009).
